{"source": "patent US20100298141A1", "about": "“SUBSTITUTED PYRIDINE N-OXIDE HERBICIDES” (E. I. DU PONT DE NEMOURS AND COMPANY, priority 2007, published 2010)", "experiment_in_all_cases": "Test F preemergence test", "key": {"[1]": {"system": "Surinam grass", "assay_type": "in vivo, Brachiaria decumbens", "conditions": "scale 0 to 100", "outline": "(§1)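 Greenhouse screen: test chemical in surfactant-containing non-phytotoxic solvent applied preemergence to sown seeds or postemergence to sugarcane plants; after 14 to 21 days each species scored visually versus controls.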"}, "[2]": {"system": "green foxtail", "assay_type": "in vivo, Setaria viridis", "conditions": "scale 0 to 100", "outline": "as §1"}, "[3]": {"system": "common purslane", "assay_type": "in vivo, Portulaca oleracea", "conditions": "scale 0 to 100", "outline": "as §1"}, "[4]": {"system": "large crabgrass", "assay_type": "in vivo, Digitaria sanguinalis", "conditions": "scale 0 to 100", "outline": "as §1"}, "[5]": {"system": "pitted morningglory", "assay_type": "in vivo, Ipomoea lacunosa", "conditions": "scale 0 to 100", "outline": "as §1"}, "[6]": {"system": "field bindweed", "assay_type": "in vivo, Convolvulus arvensis", "conditions": "scale 0 to 100", "outline": "as §1"}, "[7]": {"system": "barnyardgrass", "assay_type": "in vivo, Echinochloa crus-galli", "outline": "as §1"}, "[8]": {"system": "Canada horseweed", "assay_type": "in vivo, Conyza canadensis", "conditions": "scale 0 to 100", "text": "Seeds of plant species selected from bermudagrass (Cynodon dactylon), Surinam grass (Brachiaria decumbens), large crabgrass (Digitaria sanguinalis), green foxtail (Setaria viridis), goosegrass (Eleusine indica), johnsongrass (Sorghum halepense), kochia (Kochia scoparia), pitted morningglory (Ipomoea lacunosa), purple nutsedge (Cyperus rotundus), common ragweed (Ambrosia elation), mustard (Brassica nigra), guineagrass (Panicum maximum), […] (Paspalum dilatatum), barnyardgrass (Echinochloa crus-galli), southern sandbur (Cenchrus echinatus), common sowthistle (Sonchus oleraceous), prickly […] spinosa), Italian ryegrass (Lolium multiflorum), common purslane (Portulaca oleracea), broadleaf signalgrass (Brachiaria platyphylla), common groundsel (Senecio vulgaris), common chickweed (Stellaria media), Virginia dayflower (Commelina virginica), annual bluegrass (Poa annua), naked crabgrass (Digitaria nuda), […] cochinchinensis), quackgrass (Elytrigia repens), Canada horseweed (Conyza canadensis), field bindweed (Convolvulus arvensis), […] (Bidens bipinnata), common mallow (Malva sylvestris), Russian thistle (Salsola kali), and sugarcane (Saccharum officinarum) were planted and treated preemergence with test chemicals formulated in a non-phytotoxic solvent mixture which included a surfactant. At a different time, sugarcane was treated with postemergence applications of some of the test chemicals formulated in the same manner. Plants were approximately 3- to 4-leaf stage for the postemergence treatments. Treated plants and controls were maintained in a greenhouse for 14 to 21 days, after which time all species were compared to controls and visually evaluated. […] A dash (-) response means no test result."}, "[9]": {"system": "quackgrass", "assay_type": "in vivo, Elytrigia repens", "conditions": "scale 0 to 100", "outline": "as §1"}, "[10]": {"system": "guineagrass", "assay_type": "in vivo, Panicum maximum", "conditions": "scale 0 to 100", "outline": "as §1"}, "[11]": {"system": "Italian ryegrass", "assay_type": "in vivo, Lolium multiflorum", "conditions": "scale 0 to 100", "outline": "as §1"}, "[12]": {"system": "common ragweed", "assay_type": "in vivo, Ambrosia elation", "conditions": "scale 0 to 100", "outline": "as §1"}, "[13]": {"system": "bermudagrass", "assay_type": "in vivo, Cynodon dactylon", "conditions": "scale 0 to 100", "outline": "as §1"}, "[14]": {"system": "mustard", "assay_type": "in vivo, Brassica nigra", "conditions": "scale 0 to 100", "outline": "as §1"}, "[15]": {"system": "prickly sida", "assay_type": "in vivo, Sida spinosa", "conditions": "scale 0 to 100", "outline": "as §1"}, "[16]": {"system": "naked crabgrass", "assay_type": "in vivo, Digitaria nuda", "conditions": "scale 0 to 100", "outline": "as §1"}, "[17]": {"system": "southern sandbur", "assay_type": "in vivo, Cenchrus echinatus", "conditions": "scale 0 to 100", "outline": "as §1"}, "[18]": {"system": "common mallow", "assay_type": "in vivo, Malva sylvestris", "conditions": "scale 0 to 100", "outline": "as §1"}, "[19]": {"system": "annual bluegrass", "assay_type": "in vivo, Poa annua", "conditions": "scale 0 to 100", "outline": "as §1"}}, "data": [{"smiles": "CC(Oc1c(C[S+]([O-])c2cccc[n+]2[O-])c(C(F)(F)F)nn1C)C(F)(F)F", "note": "(stereo not drawn) [Compound 77]", "values": [{"measurement": "Plant response rating, Surinam Grass", "setting": "[1]; 16 g ai/ha, preemergence", "value": 0}, {"measurement": "Surinam Grass plant response rating", "setting": "[1]; 125 g ai/ha, preemergence", "value": 98}, {"measurement": "Plant response rating, Surinam Grass", "setting": "[1]; Preemergence, 62 g ai/ha", "value": 95}, {"measurement": "Plant response rating, Surinam Grass", "setting": "[1]; Preemergence, 31 g ai/ha", "value": 70}, {"measurement": "Plant response rating, Foxtail, Green", "setting": "[2]; 16 g ai/ha, preemergence", "value": 25}, {"measurement": "Foxtail, Green plant response rating", "setting": "[2]; 62 g ai/ha, Preemergence", "value": 90}, {"measurement": "Foxtail, Green plant response rating", "setting": "[2]; 125 g ai/ha, preemergence", "value": 100}, {"measurement": "Plant response rating, Foxtail, Green", "setting": "[2]; Preemergence, 31 g ai/ha", "value": 65}, {"measurement": "Plant response rating, Purslane", "setting": "[3]; 16 g ai/ha, preemergence", "value": 0}, {"measurement": "Purslane plant response rating", "setting": "[3]; 62 g ai/ha, Preemergence", "value": 20}, {"measurement": "Purslane plant response rating", "setting": "[3]; 125 g ai/ha, preemergence", "value": 65}, {"measurement": "Plant response rating, Purslane", "setting": "[3]; Preemergence, 31 g ai/ha", "value": 0}, {"measurement": "Plant response rating, Crabgrass, Large", "setting": "[4]; 16 g ai/ha, preemergence", "value": 0}, {"measurement": "Crabgrass, Large plant response rating", "setting": "[4]; 62 g ai/ha, Preemergence", "value": 95}, {"measurement": "Crabgrass, Large plant response rating", "setting": "[4]; 125 g ai/ha, preemergence", "value": 100}, {"measurement": "Plant response rating, Crabgrass, Large", "setting": "[4]; Preemergence, 31 g ai/ha", "value": 85}, {"measurement": "Plant response rating, Morningglory", "setting": "[5]; 16 g ai/ha, preemergence", "value": 0}, {"measurement": "Morningglory plant response rating", "setting": "[5]; 62 g ai/ha, Preemergence", "value": 60}, {"measurement": "Morningglory plant response rating", "setting": "[5]; 125 g ai/ha, preemergence", "value": 90}, {"measurement": "Plant response rating, Morningglory", "setting": "[5]; Preemergence, 31 g ai/ha", "value": 35}, {"measurement": "Plant response rating, Field Bindweed", "setting": "[6]; 16 g ai/ha, preemergence", "value": 0}, {"measurement": "Field Bindweed plant response rating", "setting": "[6]; 62 g ai/ha, Preemergence", "value": 35}, {"measurement": "Field Bindweed plant response rating", "setting": "[6]; 125 g ai/ha, preemergence", "value": 70}, {"measurement": "Plant response rating, Field Bindweed", "setting": "[6]; Preemergence, 31 g ai/ha", "value": 0}, {"measurement": "Plant response rating, Barnyardgrass", "setting": "[7]; 16 g ai/ha, preemergence, scale 0 to 100 (0 no effect, 100 complete control)", "value": 65}, {"measurement": "Barnyardgrass plant response rating", "setting": "[7]; 62 g ai/ha, Preemergence, scale 0 to 100", "value": 100}, {"measurement": "Barnyardgrass plant response rating", "setting": "[7]; 125 g ai/ha, preemergence, scale 0 to 100", "value": 100}, {"measurement": "Plant response rating, Barnyardgrass", "setting": "[7]; Preemergence, 31 g ai/ha, scale 0 to 100", "value": 90}, {"measurement": "Plant response rating, Horseweed", "setting": "[8]; 16 g ai/ha, preemergence", "value": 0}, {"measurement": "Horseweed plant response rating", "setting": "[8]; 62 g ai/ha, Preemergence", "value": 98}, {"measurement": "Horseweed plant response rating", "setting": "[8]; 125 g ai/ha, preemergence", "value": 100}, {"measurement": "Plant response rating, Horseweed", "setting": "[8]; Preemergence, 31 g ai/ha", "value": 50}, {"measurement": "Plant response rating, Quackgrass", "setting": "[9]; 16 g ai/ha, preemergence", "value": 0}, {"measurement": "Quackgrass plant response rating", "setting": "[9]; 62 g ai/ha, Preemergence", "value": 40}, {"measurement": "Quackgrass plant response rating", "setting": "[9]; 125 g ai/ha, preemergence", "value": 80}, {"measurement": "Plant response rating, Quackgrass", "setting": "[9]; Preemergence, 31 g ai/ha", "value": 0}, {"measurement": "Plant response rating, Guineagrass", "setting": "[10]; 16 g ai/ha, preemergence", "value": 15}, {"measurement": "Guineagrass plant response rating", "setting": "[10]; 62 g ai/ha, Preemergence", "value": 100}, {"measurement": "Guineagrass plant response rating", "setting": "[10]; 125 g ai/ha, preemergence", "value": 100}, {"measurement": "Plant response rating, Guineagrass", "setting": "[10]; Preemergence, 31 g ai/ha", "value": 80}, {"measurement": "Plant response rating, Ryegrass, Italian", "setting": "[11]; 16 g ai/ha, preemergence", "value": 0}, {"measurement": "Ryegrass, Italian plant response rating", "setting": "[11]; 125 g ai/ha, preemergence", "value": 100}, {"measurement": "Plant response rating, Ryegrass, Italian", "setting": "[11]; Preemergence, 62 g ai/ha", "value": 90}, {"measurement": "Plant response rating, Ryegrass, Italian", "setting": "[11]; Preemergence, 31 g ai/ha", "value": 40}, {"measurement": "Plant response rating, Ragweed", "setting": "[12]; 16 g ai/ha, preemergence", "value": 0}, {"measurement": "Ragweed plant response rating", "setting": "[12]; 125 g ai/ha, preemergence", "value": 98}, {"measurement": "Plant response rating, Ragweed", "setting": "[12]; Preemergence, 62 g ai/ha", "value": 65}, {"measurement": "Plant response rating, Bermudagrass", "setting": "[13]; 16 g ai/ha, preemergence", "value": 0}, {"measurement": "Bermudagrass plant response rating", "setting": "[13]; 62 g ai/ha, Preemergence", "value": 80}, {"measurement": "Bermudagrass plant response rating", "setting": "[13]; 125 g ai/ha, preemergence", "value": 95}, {"measurement": "Plant response rating, Bermudagrass", "setting": "[13]; Preemergence, 31 g ai/ha", "value": 30}, {"measurement": "Plant response rating, Black Mustard", "setting": "[14]; 16 g ai/ha, preemergence", "value": 0}, {"measurement": "Black Mustard plant response rating", "setting": "[14]; 62 g ai/ha, Preemergence", "value": 65}, {"measurement": "Black Mustard plant response rating", "setting": "[14]; 125 g ai/ha, preemergence", "value": 100}, {"measurement": "Plant response rating, Black Mustard", "setting": "[14]; Preemergence, 31 g ai/ha", "value": 20}, {"measurement": "Plant response rating, Prickly Sida", "setting": "[15]; 16 g ai/ha, preemergence", "value": 20}, {"measurement": "Prickly Sida plant response rating", "setting": "[15]; 62 g ai/ha, Preemergence", "value": 80}, {"measurement": "Prickly Sida plant response rating", "setting": "[15]; 125 g ai/ha, preemergence", "value": 80}, {"measurement": "Plant response rating, Prickly Sida", "setting": "[15]; Preemergence, 31 g ai/ha", "value": 30}, {"measurement": "Plant response rating, Crabgrass, Naked", "setting": "[16]; 16 g ai/ha, preemergence", "value": 0}, {"measurement": "Crabgrass, Naked plant response rating", "setting": "[16]; 62 g ai/ha, Preemergence", "value": 90}, {"measurement": "Crabgrass, Naked plant response rating", "setting": "[16]; 125 g ai/ha, preemergence", "value": 100}, {"measurement": "Plant response rating, Crabgrass, Naked", "setting": "[16]; Preemergence, 31 g ai/ha", "value": 75}, {"measurement": "Plant response rating, Sandbur", "setting": "[17]; 16 g ai/ha, preemergence", "value": 0}, {"measurement": "Sandbur plant response rating", "setting": "[17]; 125 g ai/ha, preemergence", "value": 100}, {"measurement": "Plant response rating, Sandbur", "setting": "[17]; Preemergence, 62 g ai/ha", "value": 95}, {"measurement": "Plant response rating, Sandbur", "setting": "[17]; Preemergence, 31 g ai/ha", "value": 90}, {"measurement": "Plant response rating, Mallow", "setting": "[18]; 16 g ai/ha, preemergence", "value": 65}, {"measurement": "Mallow plant response rating", "setting": "[18]; 62 g ai/ha, Preemergence", "value": 90}, {"measurement": "Mallow plant response rating", "setting": "[18]; 125 g ai/ha, preemergence", "value": 100}, {"measurement": "Plant response rating, Mallow", "setting": "[18]; Preemergence, 31 g ai/ha", "value": 90}, {"measurement": "Plant response rating, Bluegrass", "setting": "[19]; 16 g ai/ha, preemergence", "value": 0}, {"measurement": "Bluegrass plant response rating", "setting": "[19]; 62 g ai/ha, Preemergence", "value": 0}, {"measurement": "Bluegrass plant response rating", "setting": "[19]; 125 g ai/ha, preemergence", "value": 75}, {"measurement": "Plant response rating, Bluegrass", "setting": "[19]; Preemergence, 31 g ai/ha", "value": 0}]}]}
